Experimental data reported in PubChem BioAssay (NCI).
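Each compound was tested at five concentrations against cells in 96-well plates for 48 hours. GI50 marks 50% less growth. Definition used: TGI = concentration required for complete inhibition of growth.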

Experiments:
Test in all cases: NCI tumour cell line growth inhibition, 48 h
SNB-19 CNS = test system: SNB-19 CNS
HOP-92 NSCLC = test system: HOP-92 NSCLC
SK-MEL-5 melanoma = test system: SK-MEL-5 melanoma
MCF7 breast = test system: MCF7 breast
CAKI-1 renal = test system: CAKI-1 renal
T-47D breast = test system: T-47D breast
UO-31 renal = test system: UO-31 renal
SF-295 CNS = test system: SF-295 CNS
SK-MEL-28 melanoma = test system: SK-MEL-28 melanoma
PC-3 prostate = test system: PC-3 prostate
SN12C renal = test system: SN12C renal
BT-549 breast = test system: BT-549 breast
HOP-62 NSCLC = test system: HOP-62 NSCLC
NCI-H522 lung = test system: NCI-H522 lung
TK-10 renal = test system: TK-10 renal
HT29 colon = test system: HT29 colon
MALME-3M melanoma = test system: MALME-3M melanoma
HCT-15 colon = test system: HCT-15 colon
UACC-257 melanoma = test system: UACC-257 melanoma
MDA-MB-435 = test system: MDA-MB-435
A549 NSCLC = test system: A549 NSCLC
HCT-116 colon = test system: HCT-116 colon
OVCAR-3 ovarian = test system: OVCAR-3 ovarian
HL-60(TB) leukemia = test system: HL-60(TB) leukemia
MOLT-4 leukemia = test system: MOLT-4 leukemia
DU-145 prostate = test system: DU-145 prostate
K-562 leukemia = test system: K-562 leukemia
A498 renal = test system: A498 renal
RPMI-8226 leukemia = test system: RPMI-8226 leukemia
HCC-2998 colon = test system: HCC-2998 colon
CCRF-CEM leukemia = test system: CCRF-CEM leukemia
OVCAR-4 ovarian = test system: OVCAR-4 ovarian
NCI-H460 lung = test system: NCI-H460 lung
SK-MEL-2 melanoma = test system: SK-MEL-2 melanoma
SF-539 CNS = test system: SF-539 CNS
SK-OV-3 ovarian = test system: SK-OV-3 ovarian
OVCAR-5 ovarian = test system: OVCAR-5 ovarian
NCI/ADR-RES ovarian = test system: NCI/ADR-RES ovarian
SF-268 CNS = test system: SF-268 CNS
NCI-H226 lung = test system: NCI-H226 lung
786-0 renal = test system: 786-0 renal
RXF 393 renal = test system: RXF 393 renal
SNB-75 CNS = test system: SNB-75 CNS
M14 melanoma = test system: M14 melanoma
MDA-MB-231 breast = test system: MDA-MB-231 breast
IGROV1 ovarian = test system: IGROV1 ovarian
U251 CNS = test system: U251 CNS
SW-620 colon = test system: SW-620 colon
HS 578T breast = test system: HS 578T breast
NCI-H23 lung = test system: NCI-H23 lung
OVCAR-8 ovarian = test system: OVCAR-8 ovarian
KM12 colon = test system: KM12 colon
ACHN renal = test system: ACHN renal
EKVX NSCLC = test system: EKVX NSCLC
UACC-62 melanoma = test system: UACC-62 melanoma
SR leukemia = test system: SR leukemia
LOX IMVI melanoma = test system: LOX IMVI melanoma

O=C1N[C@@H]2[C@@H](O)[C@@H](O)[C@H](O)C[C@H]2c2cc3c(c(O)c21)OCO3
GI50 (SNB-19 CNS): 73.7 nM | TGI (SNB-19 CNS): 899 nM | GI50 (HOP-92 NSCLC): 86.8 nM | TGI (HOP-92 NSCLC): 890 nM | GI50 (SK-MEL-5 melanoma): 84.1 nM | TGI (SK-MEL-5 melanoma): 344 nM | GI50 (MCF7 breast): 65.6 nM | TGI (MCF7 breast): 881 nM | GI50 (CAKI-1 renal): 142 nM | TGI (CAKI-1 renal): 1160 nM | GI50 (T-47D breast): 79.9 nM | TGI (T-47D breast): 2120 nM | GI50 (UO-31 renal): 147 nM | TGI (UO-31 renal): 1110 nM | GI50 (SF-295 CNS): 157 nM | TGI (SF-295 CNS): 1050 nM | GI50 (SK-MEL-28 melanoma): 96.5 nM | TGI (SK-MEL-28 melanoma): 608 nM | GI50 (PC-3 prostate): 193 nM | TGI (PC-3 prostate): 1630 nM | GI50 (SN12C renal): 93.6 nM | TGI (SN12C renal): 1030 nM | GI50 (BT-549 breast): 206 nM | TGI (BT-549 breast): 803 nM | GI50 (HOP-62 NSCLC): 97.7 nM | TGI (HOP-62 NSCLC): 883 nM | GI50 (NCI-H522 lung): 85.2 nM | TGI (NCI-H522 lung): 527 nM | GI50 (TK-10 renal): 264 nM | TGI (TK-10 renal): 1730 nM | GI50 (HT29 colon): 119 nM | TGI (HT29 colon): 1050 nM | GI50 (MALME-3M melanoma): 128 nM | TGI (MALME-3M melanoma): 537 nM | GI50 (HCT-15 colon): 116 nM | TGI (HCT-15 colon): 1300 nM | GI50 (UACC-257 melanoma): 131 nM | TGI (UACC-257 melanoma): 894 nM | GI50 (MDA-MB-435): 113 nM | TGI (MDA-MB-435): 648 nM | GI50 (A549 NSCLC): 185 nM | TGI (A549 NSCLC): 2230 nM | GI50 (HCT-116 colon): 66 nM | TGI (HCT-116 colon): 1070 nM | GI50 (OVCAR-3 ovarian): 147 nM | TGI (OVCAR-3 ovarian): 794 nM | GI50 (HL-60(TB) leukemia): 97.3 nM | TGI (HL-60(TB) leukemia): 472 nM | GI50 (MOLT-4 leukemia): 143 nM | TGI (MOLT-4 leukemia): > 100000 nM | GI50 (DU-145 prostate): 90.7 nM | TGI (DU-145 prostate): 647 nM | GI50 (K-562 leukemia): 83.4 nM | TGI (K-562 leukemia): > 100000 nM | GI50 (A498 renal): 200 nM | TGI (A498 renal): 541 nM | GI50 (RPMI-8226 leukemia): 169 nM | TGI (RPMI-8226 leukemia): 687 nM | GI50 (HCC-2998 colon): 95.7 nM | TGI (HCC-2998 colon): 418 nM | GI50 (CCRF-CEM leukemia): 105 nM | GI50 (OVCAR-4 ovarian): 99.4 nM | TGI (OVCAR-4 ovarian): 975 nM | GI50 (NCI-H460 lung): 83.8 nM | TGI (NCI-H460 lung): 743 nM | GI50 (SK-MEL-2 melanoma): 98.4 nM | TGI (SK-MEL-2 melanoma): 415 nM | GI50 (SF-539 CNS): 101 nM | TGI (SF-539 CNS): 548 nM | GI50 (SK-OV-3 ovarian): 211 nM | TGI (SK-OV-3 ovarian): 2100 nM | GI50 (OVCAR-5 ovarian): 238 nM | TGI (OVCAR-5 ovarian): 1610 nM | GI50 (NCI/ADR-RES ovarian): 223 nM | TGI (NCI/ADR-RES ovarian): 1650 nM | GI50 (SF-268 CNS): 144 nM | TGI (SF-268 CNS): 991 nM | GI50 (NCI-H226 lung): 128 nM | TGI (NCI-H226 lung): 699 nM | GI50 (786-0 renal): 174 nM | TGI (786-0 renal): 1590 nM | GI50 (RXF 393 renal): 131 nM | TGI (RXF 393 renal): 562 nM | GI50 (SNB-75 CNS): 89.8 nM | TGI (SNB-75 CNS): 861 nM | GI50 (M14 melanoma): 81.3 nM | TGI (M14 melanoma): 357 nM | GI50 (MDA-MB-231 breast): 136 nM | TGI (MDA-MB-231 breast): 926 nM | GI50 (IGROV1 ovarian): 207 nM | TGI (IGROV1 ovarian): 1470 nM | GI50 (U251 CNS): 73.6 nM | TGI (U251 CNS): 1060 nM | GI50 (SW-620 colon): 91.8 nM | TGI (SW-620 colon): 3260 nM | GI50 (HS 578T breast): 113 nM | TGI (HS 578T breast): 713 nM | GI50 (NCI-H23 lung): 102 nM | TGI (NCI-H23 lung): 544 nM | GI50 (OVCAR-8 ovarian): 100 nM | TGI (OVCAR-8 ovarian): 1390 nM | GI50 (KM12 colon): 77.8 nM | TGI (KM12 colon): 584 nM | GI50 (ACHN renal): 132 nM | TGI (ACHN renal): 825 nM | GI50 (EKVX NSCLC): 193 nM | TGI (EKVX NSCLC): 1260 nM | GI50 (UACC-62 melanoma): 178 nM | TGI (UACC-62 melanoma): 830 nM | GI50 (SR leukemia): 103 nM | TGI (SR leukemia): > 100000 nM | GI50 (LOX IMVI melanoma): 53.6 nM | TGI (LOX IMVI melanoma): 224 nM
